By IC50 is commonly meant the midpoint of a concentration-inhibition curve. Read a high IC50 as a need for much substance. A word on the Papp A→B: it is how fast a substance crosses the layer from the apical side. One may read the Papp B→A as how fast a substance crosses the layer from the basolateral side. In general, efflux ratio refers to a quotient of directional permeabilities that is used to spot active efflux.

This note sets out measurements from patent US11014943B2, “Azetidine derivative” (CHIA TAI TIANQING PHARMACEUTICAL GROUP CO., LTD., priority 2017, dated 2021).

The test system of one data set is MM1.S cells. As to the kind of experiment: In vitro anti-proliferation test on MM1.S cells (CellTiter-Glo). Type of data set: cell-based. To be noted: Homo sapiens, 48 h, 2 days incubation, cell viability. As for the experimental part: This test was aimed to investigate the inhibitory effect of a compound on cell proliferation by determining the effect of the compound on cell viability in tumor cell line MM1.S in vitro.
MM1.S cells were seeded into a black 96-well cell culture plate at a density of 7,000 cells per well, and then the plate was incubated overnight in an incubator with 5% CO2 and 100% relative humidity at 37° C. A solution of a test compound in DMSO was added to the cell culture wells at a certain concentration (0.3 to 2000 nM), and then the culture plate was placed back to the incubator, and a vehicle control (containing DMSO with no compound) and a blank control were provided.
The culture plate was incubated in the incubator with 5% CO2 and 100% relative humidity at 37° C. for 2 days. The sample was treated using the Promega CellTiter-Glo Luminescent Cell Viability Assay Kit (Promega-G7571) standard method, and a luminescent signal was detected on the SpectraMax i3x of Molecular Devices plate reader. The inhibition rate of the test compound was calculated through the following equation using original data: […]
RLU represents a relative luminescence intensity.

Data set [1] can be described thus: Liver microsome stability test, human. Type of data set: in vitro ADME. The following applies: human liver microsomes; human (H) liver microsome; read-out: Liver microsome stability (T1/2, min). The protocol: (§1) A test compound was incubated with CD-1 mouse liver microsome, SD rat liver microsome, and human liver microsome, respectively, to evaluate the stability of the test compound.
(§2) Preparation of a solution sample of the test compound: 10 mM solution (5 μL) of a compound prepared in the Example in DMSO was added to a mixed solvent (450 μL) of DMSO (45 μL), methanol and water (a volume ratio of methanol to water was 1:1) to prepare a 100 μM solution of the test compound; and 50 μL of the 100 μM solution of the test compound was added to 450 μL of 100 mM potassium phosphate buffer to obtain a 10 μM solution of the test compound.
(§3) The 10 μM solution of the test compound was pre-incubated with the microsome from the above three species for 10 minutes, respectively, and then a working solution of a reduced nicotinamide adenine dinucleotide phosphate (NADPH) regeneration system was added to the incubation plate at each time point to initiate the reaction, and finally a stop solution (100% ACN) was added to the reaction plate to terminate the reaction at 0, 5, 10, 20, 30 and 60-minute. The test compound was determined by LC-MS/MS method.
For orientation: Liver microsomes are vesicles of endoplasmic reticulum, rich in cytochrome P450 enzymes.

The nature of data set [2]: Liver microsome stability test, rat. To be noted: rat liver microsomes; SD rat (R) liver microsome; read-out: Liver microsome stability (T1/2, min). Type of data set: in vitro ADME. As for the experimental part:
as §1, §2, §3

The nature of data set [3]: Liver microsome stability test, mouse. Type of data set: in vitro ADME. The following applies: mouse liver microsomes; CD-1 mouse (M) liver microsome; read-out: Liver microsome stability (T1/2, min). As for the experimental part: as §1, §2, §3
The subject of another data set is MDR1. As to the kind of experiment: Cell membrane permeability test on MDR1-MDCK II cells. The data set is classed as in vitro ADME. The following applies: dog; for Papp A→B at 150 min, 2 μM / Papp B→A at 150 min, 2 μM: pH=7.4; for efflux ratio at 150 min, 2 μM: pH 7.4, Papp B to A/Papp A to B. The protocol: Cell membrane permeability of a test compound was evaluated on MDR1-MDCK II cells.
A test compound (10 mM solution of the compound in DMSO) was diluted with a transfer buffer (HBSS with 10 mM Hepes, pH=7.4) to prepare a sample having a final concentration of 2 μM, followed by bidirectional (A-B and B-A) administration. After administration, the cell plate was incubated in an incubator with 5% CO2 and a saturated humidity at 37° C. for 150 minutes. After the 150-minute incubation, the sample was collected, and the concentration of the test compound in the transfer sample was semi-quantitatively determined by LC/MS/MS method.

`CC(C)CC(NC(=O)[C@H](Cc1ccccc1)NC(=O)[C@@H]1CCN1c1ccc(F)cc1)B(O)O` (single isomer, unassigned) [WX-193] displayed an IC50 in the data set on MM1.S cells of 0.0082 µM. Besides, the half-life in data set [1] turned out to be 4.8 min. For the same compound, the half-life in data set [2] was 4.6 min. The half-life in data set [3] came to 2.7 min. For the same compound, in the data set on MDR1, the Papp A→B at 150 min, 2 μM is 1 nm/s; the Papp B→A at 150 min, 2 μM turned out to be 131 nm/s; the efflux ratio at 150 min, 2 μM came out at 131.
`CC(C)CC(NC(=O)[C@H](C)NC(=O)[C@@H]1CCN1c1ncc(F)cn1)B(O)O` (single isomer, unassigned) [WX-313]: the IC50 with MM1.S cells was 0.0245 µM. Further, the half-life in data set [1] is over 145 min. Further, the half-life in data set [2] was found to be 57.2 min. Further, the half-life in data set [3] was determined as 52.5 min. In addition, in the data set on MDR1, the Papp A→B at 150 min, 2 μM came to 2 nm/s; the Papp B→A at 150 min, 2 μM worked out at 12.9 nm/s; the efflux ratio at 150 min, 2 μM is 7.16.
In the case of `CC(C)CC(NC(=O)CNC(=O)[C@@H]1CCN1c1ccc(C(F)(F)F)cc1Cl)B(O)O` (some centres unmarked) [WX-351], the IC50 in the data set on MM1.S cells stood at 0.0459 µM.
`CC(C)CC(NC(=O)CNC(=O)[C@@H]1CCN1c1ccc(C(F)(F)F)cn1)B(O)O` (some centres unmarked) [WX-329] displayed an IC50 in the data set with MM1.S cells of 0.0115 µM. Moreover, the half-life in data set [1] stood at 51.5 min; in data set [2] it was 43.3 min; in data set [3] it was 40.3 min. The compound further gave a Papp A→B at 150 min, 2 μM in the data set with MDR1 of 2.7 nm/s. Moreover, in the data set on MDR1, the Papp B→A at 150 min, 2 μM was found to be 37.4 nm/s. For the same compound, in the data set with MDR1, the efflux ratio at 150 min, 2 μM is 13.8.
Take `CC(C)CC(NC(=O)[C@H](CC1CC1)NC(=O)[C@@H]1CCN1c1ccc(C(F)(F)F)cn1)B(O)O` (some centres unmarked) [WX-306]: in the data set on MM1.S cells, the IC50 came to 0.0082 µM. For the same compound, the half-life in data set [1] was found to be 17.8 min. In addition, in data set [2], the half-life worked out at 37.4 min. In data set [3], the half-life came out at 14 min. Moreover, in the data set on MDR1, the Papp A→B at 150 min, 2 μM is 3 nm/s; the Papp B→A at 150 min, 2 μM turned out to be 178 nm/s; the efflux ratio at 150 min, 2 μM is 59.3.
In turn, `CC(C)CC(NC(=O)CNC(=O)[C@@H]1CCN1c1ccc(F)cn1)B(O)O` (single isomer, unassigned) [WX-317] yielded an IC50 in the data set with MM1.S cells of 0.032 µM. For the same compound, the half-life in data set [1] stood at 77 min. The half-life in data set [2] was found to be 35.5 min. For the same compound, the half-life in data set [3] worked out at 27.1 min. In the data set with MDR1, the Papp A→B at 150 min, 2 μM stood at 0.1 nm/s; the Papp B→A at 150 min, 2 μM worked out at 0.5 nm/s; the efflux ratio at 150 min, 2 μM was 5.
In turn, `CC(C)CC(NC(=O)[C@H](Cc1ccccc1)NC(=O)[C@@H]1CCN1c1nccc(-c2ccccc2)n1)B(O)O` (some centres unmarked) [WX-174] had an IC50 with MM1.S cells of 0.0058 µM. For the same compound, the half-life in data set [1] was found to be 3.5 min; in data set [2] it was 1.6 min; in data set [3], 0.8 min. Moreover, the Papp A→B at 150 min, 2 μM in the data set on MDR1 is 4.4 nm/s. Besides, in the data set on MDR1, the Papp B→A at 150 min, 2 μM worked out at 184 nm/s. Further, the efflux ratio at 150 min, 2 μM in the data set with MDR1 amounted to 41.8.
Turning to `CC(C)CC(NC(=O)CNC(=O)[C@@H]1CCN1c1ccc(F)cc1)B(O)O` (single isomer, unassigned) [WX-301], 0.0058 µM corresponded to half-maximal inhibition in the data set on MM1.S cells (IC50). The values for the half-life in data set [1], in data set [2] and in data set [3] were 74.3 min, 42.1 min and 43.5 min, respectively.
In turn, `CC(C)CC(NC(=O)CNC(=O)[C@@H]1CCN1c1ccc(Cl)cc1C(F)(F)F)B(O)O` (some centres unmarked) [WX-385] returned an IC50 in the data set with MM1.S cells of 0.104 µM.
In turn, `CC(C)CC(NC(=O)CNC(=O)[C@@H]1CCN1c1nc(C(F)(F)F)cs1)B(O)O` (some centres unmarked) [WX-327] yielded a half-maximal inhibitory concentration (IC50) in the data set with MM1.S cells of 0.0242 µM. Also, the half-life in data set [1] came to 75 min. Also, the half-life in data set [2] was determined as 26.5 min. Also, the half-life in data set [3] came out at 37.7 min. In addition, in the data set on MDR1, the Papp A→B at 150 min, 2 μM was found to be 2.4 nm/s; the Papp B→A at 150 min, 2 μM amounted to 22.4 nm/s; the efflux ratio at 150 min, 2 μM amounted to 9.33.
On to `CC(C)CC(NC(=O)CNC(=O)[C@@H]1CCN1c1ccc(F)cc1F)B(O)O` (single isomer, unassigned) [WX-333], for which, in the data set with MM1.S cells, the midpoint of inhibition, the IC50, lay at 0.001 µM. The half-life in data set [1] worked out at 67.4 min. Moreover, in data set [2], the half-life came out at 43.1 min. Moreover, in data set [3], the half-life was 67.4 min. In addition, in the data set on MDR1, the Papp A→B at 150 min, 2 μM is 3.8 nm/s; the Papp B→A at 150 min, 2 μM turned out to be 73.2 nm/s; the efflux ratio at 150 min, 2 μM was found to be 19.3.
With `CC(C)CC(NC(=O)[C@H](CC1CC1)NC(=O)[C@@H]1CCN1c1ncc(F)cn1)B(O)O` (some centres unmarked) [WX-260], the IC50 in the data set on MM1.S cells is 0.011 µM. Moreover, the half-life in data set [1] was 108 min. Also, in data set [2], the half-life was over 145 min. Besides, the half-life in data set [3] came out at 84.8 min. Also, in the data set with MDR1, the Papp A→B at 150 min, 2 μM was 3 nm/s; the Papp B→A at 150 min, 2 μM worked out at 51 nm/s; the efflux ratio at 150 min, 2 μM turned out to be 17.
Compound `CC(C)CC(NC(=O)CNC(=O)[C@@H]1CCN1c1cc(F)c(F)cc1F)B(O)O` (some centres unmarked) [WX-391] displayed an IC50 in the data set with MM1.S cells of 0.0054 µM.
On the same count and under the same terms, next, `CC(C)CC(NC(=O)CNC(=O)[C@@H]1CCN1c1ccc(C(F)(F)F)cc1F)B(O)O` (some centres unmarked) [WX-355]: 0.0288 µM.
Still for that read-out and setting: next, `CC(C)CC(NC(=O)CNC(=O)[C@@H]1CCN1c1ccc(C#N)cc1F)B(O)O` (some centres unmarked) [WX-365]: 0.0906 µM; `CC(C)CC(NC(=O)CNC(=O)[C@@H]1CCN1c1ncc(F)cc1F)B(O)O` (some centres unmarked) [WX-379]: 0.024 µM.
Same read-out and setting: with `CC(C)CC(NC(=O)CNC(=O)[C@@H]1CCN1c1c(F)cc(Cl)cc1F)B(O)O` (some centres unmarked) [WX-373] the figure was 0.0267 µM.
As to `CC(C)CC(NC(=O)[C@H](CC1CC1)NC(=O)[C@@H]1CCN1c1nc(C(F)(F)F)cs1)B(O)O` (some centres unmarked) [WX-308], in the data set with MM1.S cells, half-maximal inhibition (IC50) was put at 0.0089 µM. The half-life in data set [1] amounted to 27.4 min. In data set [2], the half-life came out at 26.8 min. The half-life in data set [3] was found to be 20.1 min. Further, in the data set with MDR1, the apparent permeability from apical to basolateral (Papp A→B) at 150 min, 2 μM was 2 nm/s; the Papp B→A at 150 min, 2 μM was 153 nm/s; the efflux ratio at 150 min, 2 μM came to 76.5.
For the compound `CC(C)CC(NC(=O)CNC(=O)[C@@H]1CCN1c1ccc(C(F)(F)F)nn1)B(O)O` (some centres unmarked) [WX-367], the IC50 with MM1.S cells turned out to be 0.183 µM.
On to `CC(C)CC(NC(=O)CNC(=O)[C@@H]1CCN1c1ccc(F)cc1Cl)B(O)O` (some centres unmarked) [WX-381], for which the IC50 with MM1.S cells was 0.119 µM.
